For orientation: melting point means the temperature, or range, at which the solid turns liquid.

Structures are written as SMILES. Read-outs that look alike come from different tables or passages of the source.

The values below come from patent US20030220386A1, “Delta 1-pyrrolines for use as pesticides” (priority 2000, published 2003).

Data set [1] is described as follows: logP determination by HPLC (reversed-phase C 18), EEC Directive 79/831 Annex V.A8. The format is physicochemical. As to conditions: 43° C. On the procedure: The logP values given in the tables and preparation examples above are determined in accordance with EEC Directive 79/831 Annex V.A8 by HPLC (High Performance Liquid Chromatography) using a reversed-phase column (C 18). Temperature: 43° C.
In the acidic range, the determination is carried out at pH 2.3 using the mobile phases 0.1% aqueous phosphoric acid and acetonitrile; linear gradient from 10% acetonitrile to 90% acetonitrile.
In the neutral range, the determination is carried out at pH 7.5 using the mobile phases 0.01 molar aqueous phosphate buffer solution and acetonitrile; linear gradient from 10% acetonitrile to 90% acetonitrile.
Calibration is carried out using unbranched alkan-2-ones (of 3 to 16 carbon atoms) with known logP values (determination of the logP values by the retention times using linear interpolation between two successive alkanones).

For data set [2], the system named is peach aphid (Myzus persicae). The experiment in a line: Myzus test. Type of data set: in vivo. As to conditions: cabbage leaves dipped.
Data set [3] concerns greenhouse red spider mite (Tetranychus urticae). The data set can be described thus: Tetranychus test (OP-resistant/dip treatment). Type of data set: in vivo. The note with it: 100 ppm, bean plants dipped. The protocol:
After the desired period of time, the activity in % is determined.

The test system of data set [4] is larvae of the mustard beetle (Phaedon cochleariae). The data set can be described thus: Phaedon larvae test. As to conditions: 1000 ppm, cabbage leaves dipped.
The next data set has as its system Lucilia cuprina larvae. The experiment in a line: Blowfly larvae test/Development-inhibitory action. The format is in vivo. The note with it: 100 ppm; mortality of the larvae after 48 hours. The protocol: (§1) 20 mg of active compound are dissolved in one ml of dimethyl sulphoxide. To prepare a suitable formulation, the solution of active compound is diluted with water to the concentration desired in each case.
About 20 Lucilia cuprina larvae are introduced into a test tube which contains about 1 cm^3 of horsemeat and 0.5 ml of the preparation of active compound to be tested. The activity of the preparation of active compound is determined after 48 hours as the mortality of the larvae in %.
The test tubes are then transferred into a beaker whose bottom is covered with sand. After a further 12 days, the test tubes are removed and the pupae and flies are counted. The development-inhibitory action is stated as inhibition of hatching in % (ratio of pupae to flies that have hatched) after 1.5 times the development period of an untreated control.

The subject of data set [5] is Amblyomma hebraeum nymphs. The experiment in a line: Test with polyphagous tick nymphs, dip treatment. The format is in vivo. The note with it: nymphs immersed for 1 minute; after 4 weeks. The protocol: as §1
10 nymphs which have sucked themselves full are immersed for 1 minute into the preparation of active compound to be tested. The animals are transferred to Petri dishes (Ø 9.5 cm) fitted with filter discs and covered. After 4 weeks of storage in a climatized room, the mortality is determined.
100% means that none of the animals has undergone normal ecdysis. 0% means that all animals have undergone ecdysis.

Data set [6] has as its system cotton aphid (Aphis gossypii). The data set can be described thus: Aphis gossypii test. The format is in vivo. As to conditions: 200 ppm, cotton leaves dipped.
For data set [7], the system named is larvae of the armyworm (Spodoptera exigua). The data set can be described thus: Spodoptera exigua test. Type of data set: in vivo. As to conditions: 1000 ppm, cabbage leaves dipped.
Data set [8] relates to larvae of the armyworm (Spodoptera frugiperda). The data set can be described thus: Spodoptera frugiperda test. Type of data set: in vivo. As to conditions: 1000 ppm, cabbage leaves dipped.
In data set [9] the test system is Heliothis virescens caterpillars. The data set can be described thus: Heliothis virescens test. The format is in vivo. The note with it: 1000 ppm, soya bean shoots dipped.
The test system of data set [10] is caterpillars of the diamondback moth (Plutella xylostella). The data set can be described thus: Plutella test. Type of data set: in vivo. The note with it: 1000 ppm, cabbage leaves dipped.
Where [11] appears, read: pH 2.3, 0.1% aqueous phosphoric acid/acetonitrile, read-out: log P (pH 2.3).
Where [12] appears, read: reversed-phase C18 HPLC column, pH 2.3, 0.1% aqueous phosphoric acid/acetonitrile, read-out: log P (pH 2.3).

For the compound `CC(C)(C)OC(=O)N1C(=O)CCC1c1ccc(-c2ccc(OS(=O)(=O)C(F)(F)C(F)(F)C(F)(F)C(F)(F)F)cc2)cc1` (stereo not shown) [VII-3, tert-Butyl 2-(4′-{[(1,1,2,2,3,3,4,4,4-nonafluorobutyl)sulphonyl]oxy}-1,1′-biphenyl-4-yl)-5-oxo-1-pyrrolidinecarboxylate], the chromatographic logP in data set [1] (setting [11]) turned out to be 5.44.

Take `O=S(=O)(Oc1ccc(C2CCC(c3c(F)cccc3F)=N2)cc1)c1ccc(OC(F)(F)F)cc1` (stereo not shown) [I-6, 4-[5-(2,6-difluorophenyl)-3,4-dihydro-2H-pyrrol-2-yl]phenyl 4-(trifluoromethoxy)benzenesulphonate]: the “Kill rate in % after 6 days” value in data set [2] (1000 ppm) is given as 95%. For the same compound, the “Kill rate in % after 7 days” value was found to be 98% in data set [3] and 90% in data set [4]. The “Action in % after 48 hours” value with Lucilia cuprina larvae stood at 90%. In addition, the chromatographic logP in data set [1] (setting [12]) turned out to be 3.83.

In the case of `O=C1CCC(c2ccc(-c3ccc(OS(=O)(=O)C(F)(F)C(F)(F)C(F)(F)C(F)(F)F)cc3)cc2)N1` (stereo not shown) [IX-b-2, 4′-(5-Oxo-2-pyrrolidinyl)-1,1′-biphenyl-4-yl 1,1,2,2,3,3,4,4,4-nonafluoro-1-butanesulphonate], the chromatographic logP in data set [1] (setting [11]) was 4.21.

For `O=S(=O)(Oc1ccc(C2CCC(c3c(F)cccc3F)=N2)cc1)C(F)(F)F` (stereo not shown) [I-1, 4-[5-(2,6-difluorophenyl)-3,4-dihydro-2H-pyrrol-2-yl]phenyl trifluoromethanesulphonate], the “activity (mortality / no normal ecdysis)” value in data set [5] is reported as “good activity”. In addition, the “Kill rate in % after 6 days” value in [6] and in data set [2] (20 ppm) was 95% throughout. Also, the “Kill rate in % after 7 days” value in data set [3] is listed as 95%; in [4], 100%. For the same compound, the “Action in % after 48 hours” value in the data set on Lucilia cuprina larvae was 100%. The chromatographic logP in data set [1] (setting [12]) turned out to be 3.49.

On to `CN(C)S(=O)(=O)Oc1ccc(-c2ccc(C3CCC(=O)N3C(=O)OC(C)(C)C)cc2)cc1` (stereo not shown) [VII-4, tert-Butyl 2-(4′-{[(dimethylamino)sulphonyl]oxy}-1,1′-biphenyl-4-yl)-5-oxo-1-pyrrolidinecarboxylate], for which the chromatographic logP in data set [1] (setting [12]) worked out at 3.31.

As to `O=S(=O)(Oc1ccc(-c2ccc(C3CCC(c4c(F)cccc4F)=N3)cc2)cc1)C(F)(F)F` (stereo not shown) [I-7, 4′-[5-(2,6-difluorophenyl)-3,4-dihydro-2H-pyrrol-2-yl]-1,1′-biphenyl-4-yl trifluoromethanesulphonate], the “activity (mortality / no normal ecdysis)” value in data set [5] was “good activity”. Moreover, the “Kill rate in % after 7 days” value in data set [3] is reported as 98%; in [4], 100%. Besides, the “Kill rate in % after 6 days” value in [7], in data set [8], in data set [9] and in data set [10] was 100% in each case. For the same compound, in the data set on Lucilia cuprina larvae, the “Action in % after 48 hours” value is reported as 100%. For the same compound, the chromatographic logP in [1] (setting [12]) was determined as 4.15.

As to `CC(C)(C)OC(=O)NC(CCC(=O)c1c(F)cccc1F)c1ccc(-c2ccc(OS(=O)(=O)C(F)(F)C(F)(F)C(F)(F)C(F)(F)F)cc2)cc1` (stereo not shown) [II-3, 4′-[1-[(tert-Butoxycarbonyl)amino]-4-(2,6-difluorophenyl)-4-oxobutyl]-1,1′-biphenyl-4-yl 1,1,2,2,3,3,4,4,4-nonafluoro-1-butanesulphonate], in data set [1] (setting [11]), the chromatographic logP was 6.05.

Consider `CC(C)(C)OC(=O)N1C(=O)CC[C@@H]1c1ccc(OS(=O)(=O)C(F)(F)F)cc1` [VII-2, tert-butyl 2-oxo-(5R)-5-(4-{[(trifluoromethyl)sulphonyl]oxy}phenyl)-1-pyrrolidinecarboxylate], for which, in [1] (setting [12]), the chromatographic logP worked out at 3.31.

Consider `CN(C)S(=O)(=O)Oc1ccc(-c2ccccc2C2CCC(=O)N2)cc1` (single isomer, unassigned; isomer 2) [“ortho” isomer, 2′-(5-oxo-2-pyrrolidinyl)-1,1′-biphenyl-4-yl dimethylsulphamate], for which, in data set [1] (setting [12]), the chromatographic logP worked out at 2.28.

As for `CC1(C)OB(c2ccc(C3CCC(c4c(F)cccc4F)=N3)cc2)OC1(C)C` (stereo not shown) [V-1, 5-(2,6-difluorophenyl)-2-[4-(4,4,5,5-tetramethyl-1,3,2-dioxaborolan-2-yl)phenyl]-3,4-dihydro-2H-pyrrole], in data set [1] (reversed-phase C18 HPLC column, pH 7.5, 0.01 molar aqueous phosphate buffer/acetonitrile, read-out: log P (pH 7.5)), the chromatographic logP was found to be 4.46.

With `O=S(=O)(Oc1ccc(-c2ccc(C3CCC(c4c(F)cccc4F)=N3)cc2)cc1)C(F)(F)C(F)(F)C(F)(F)C(F)(F)F` (stereo not shown) [I-3, 4′-[5-(2,6-Difluorophenyl)-3,4-dihydro-2H-pyrrol-2-yl]-1,1′-biphenyl-4-yl 1,1,2,2,3,3,4,4,4-nonafluoro-1-butanesulphonate], the “Kill rate in % after 7 days” value in data set [3] is recorded as 98%; in [4] it was 100%. For the same compound, the “Kill rate in % after 6 days” value in data set [8] is given as 100%. Further, the chromatographic logP in data set [1] (setting [11]) was 5.57.

For `CN(C)S(=O)(=O)Oc1ccc(-c2ccc(C3CCC(=O)N3)cc2)cc1` (stereo not shown) [IX-b-1, 4′-(5-oxo-2-pyrrolidinyl)-1,1′-biphenyl-4-yl dimethylsulphamate], the chromatographic logP in [1] (setting [12]) amounted to 2.23.

As for `CN(C)S(=O)(=O)Oc1ccc(-c2ccccc2)cc1` [XIII-2, 1,1′-biphenyl-4-yl dimethylsulphamate], the melting point was 105 to 107 °C. The chromatographic logP in data set [1] (setting [11]) stood at 3.51.

Turning to `CN(C)S(=O)(=O)Oc1ccc(-c2ccc(C(CCC(=O)c3c(F)cccc3F)NC(=O)OC(C)(C)C)cc2)cc1` (stereo not shown) [II-4, tert-Butyl 4-(2,6-difluorophenyl)-1-(4′-{[(dimethylamino)sulphonyl]oxy}-1,1′-biphenyl-4-yl)-4-oxobutylcarbamate], the chromatographic logP in data set [1] (setting [12]) worked out at 4.25.

`CC(C)(C)OC(=O)N1C(=O)CCC1c1ccc(OS(=O)(=O)C(F)(F)F)cc1` (stereo not shown) [VII-1, tert-butyl 2-oxo-5-(4-{[(trifluoromethyl)-sulphonyl]oxy}phenyl)-1-pyrrolidinecarboxylate]: the chromatographic logP in [1] (setting [12]) was 3.31.

Regarding `CN(C)S(=O)(=O)Oc1ccc(-c2ccc(C3CCC(c4c(F)cccc4F)=N3)cc2)cc1` (stereo not shown) [I-4, 4′-[5-(2,6-Difluorophenyl)-3,4-dihydro-2H-pyrrol-2-yl]-1,1′-biphenyl-4-yl dimethylsulphamate], the “Kill rate in % after 7 days” value in data set [4] is 100%. The “Kill rate in % after 6 days” value in data set [8] is 100%. Moreover, the chromatographic logP in [1] (setting [12]) is 3.06.

Regarding `CC(C)(C)OC(=O)NC(CCC(=O)c1c(F)cccc1F)c1ccc(OS(=O)(=O)C(F)(F)F)cc1` (stereo not shown) [II-1, 4-[1-[(tert-butoxycarbonyl)amino]-4-(2,6-difluorophenyl)-4-oxobutyl]phenyl trifluoromethanesulphonate], the chromatographic logP in data set [1] (setting [11]) was found to be 4.38.

Consider `CC(C)(C)OC(=O)N[C@H](CCC(=O)c1c(F)cccc1F)c1ccc(OS(=O)(=O)C(F)(F)F)cc1` [II-2, 4-[(1R)-1-[(tert-Butoxycarbonyl)amino]-4-(2,6-difluorophenyl)-4-oxobutyl]phenyl trifluoromethanesulphonate], for which the chromatographic logP in [1] (setting [11]) was determined as 4.37.

With `O=S(=O)(Oc1ccc(-c2ccccc2)cc1)C(F)(F)C(F)(F)C(F)(F)C(F)(F)F` [XIII-1, 1,1′-biphenyl-4-yl 1,1,2,2,3,3,4,4,4-nonafluoro-1-butanesulphonate], the chromatographic logP in [1] (setting [11]) was 5.81.
